Measurements from ChEMBL document CHEMBL3351874, “Rational design of inhibitors of the bacterial cell wall synthetic enzyme GlmU using virtual screening and lead-hopping” (Bioorg Med Chem, 2014).
The source made the active and inactive calls. The rule behind the calls is not given here.

How the values were obtained:
[1] = target: Bifunctional protein GlmU (Escherichia coli, UniProt C3SLB7); assay: Inhibition of Escherichia coli ATCC 27325 GlmU expressed in Escherichia coli HMS174(DE3) incubated for 15 mins prior to MgCl2 addition measured after 30 mins by malachite green staining-based assay
Bifunctional protein GlmU, sequence (C3SLB7 whole entry): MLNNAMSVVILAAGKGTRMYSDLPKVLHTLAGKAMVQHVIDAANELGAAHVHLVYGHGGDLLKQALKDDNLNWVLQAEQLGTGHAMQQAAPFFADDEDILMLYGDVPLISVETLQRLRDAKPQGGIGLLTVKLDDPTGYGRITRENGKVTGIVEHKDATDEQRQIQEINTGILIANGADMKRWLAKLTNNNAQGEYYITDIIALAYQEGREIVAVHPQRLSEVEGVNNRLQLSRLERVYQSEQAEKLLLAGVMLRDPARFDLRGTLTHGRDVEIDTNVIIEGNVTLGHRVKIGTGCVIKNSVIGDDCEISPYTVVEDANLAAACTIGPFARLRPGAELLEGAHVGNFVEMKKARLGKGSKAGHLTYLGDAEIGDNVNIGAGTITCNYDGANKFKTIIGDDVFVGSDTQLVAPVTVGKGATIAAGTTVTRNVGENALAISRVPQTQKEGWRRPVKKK

[2] = Inhibition of Haemophilus influenzae ATCC 51907 GlmU expressed in Escherichia coli BL21(DE3) incubated for 15 mins prior to MgCl2 addition measured after 30 mins by malachite green staining-based assay
[3] = Serum protein binding in human at 10 uM after 30 mins by ultrafiltration method; type: ADME; details: read-out: PB (converted)
Aurora kinase B = Aurora kinase B (Homo sapiens, UniProt Q96GD4); assay: Inhibition of human AURKB incubated for 20 mins prior to MgCl2 addition measured after 90 mins by mobility shift assay
Aurora kinase B, sequence (Q96GD4 whole entry): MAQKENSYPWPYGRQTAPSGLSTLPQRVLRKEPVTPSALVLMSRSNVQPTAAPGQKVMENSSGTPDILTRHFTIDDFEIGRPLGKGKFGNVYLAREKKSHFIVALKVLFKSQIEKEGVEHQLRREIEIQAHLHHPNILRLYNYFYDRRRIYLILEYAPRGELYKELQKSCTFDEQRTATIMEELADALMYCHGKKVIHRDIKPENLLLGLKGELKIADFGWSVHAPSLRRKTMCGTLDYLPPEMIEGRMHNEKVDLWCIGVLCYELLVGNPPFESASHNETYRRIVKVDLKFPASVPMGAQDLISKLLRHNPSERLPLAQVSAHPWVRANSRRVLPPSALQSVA

[4] = target: T1, Interleukin-1 receptor-associated kinase 4 (Homo sapiens, UniProt Q9NWZ3); assay: Inhibition of human IRAK4 incubated for 20 mins prior to MgCl2 addition measured after 90 mins by mobility shift assay
T1 sequence (Q9NWZ3 whole entry): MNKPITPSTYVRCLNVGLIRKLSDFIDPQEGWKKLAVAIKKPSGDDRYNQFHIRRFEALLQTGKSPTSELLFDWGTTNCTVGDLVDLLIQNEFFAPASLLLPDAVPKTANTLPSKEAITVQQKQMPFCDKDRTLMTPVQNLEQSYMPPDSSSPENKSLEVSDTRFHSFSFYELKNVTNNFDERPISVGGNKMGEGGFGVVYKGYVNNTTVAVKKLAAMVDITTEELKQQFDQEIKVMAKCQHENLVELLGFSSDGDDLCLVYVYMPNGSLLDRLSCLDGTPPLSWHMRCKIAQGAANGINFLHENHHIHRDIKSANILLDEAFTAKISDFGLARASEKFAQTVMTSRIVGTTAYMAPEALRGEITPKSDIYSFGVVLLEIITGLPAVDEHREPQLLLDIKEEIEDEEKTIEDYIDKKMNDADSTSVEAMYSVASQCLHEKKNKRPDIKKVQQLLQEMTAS

[5] = target: Interleukin-1 receptor-associated kinase 1 (Homo sapiens, UniProt P51617); assay: Inhibition of human IRAK1 incubated for 20 mins prior to MgCl2 addition measured after 90 mins by mobility shift assay
Interleukin-1 receptor-associated kinase 1, sequence (P51617 whole entry): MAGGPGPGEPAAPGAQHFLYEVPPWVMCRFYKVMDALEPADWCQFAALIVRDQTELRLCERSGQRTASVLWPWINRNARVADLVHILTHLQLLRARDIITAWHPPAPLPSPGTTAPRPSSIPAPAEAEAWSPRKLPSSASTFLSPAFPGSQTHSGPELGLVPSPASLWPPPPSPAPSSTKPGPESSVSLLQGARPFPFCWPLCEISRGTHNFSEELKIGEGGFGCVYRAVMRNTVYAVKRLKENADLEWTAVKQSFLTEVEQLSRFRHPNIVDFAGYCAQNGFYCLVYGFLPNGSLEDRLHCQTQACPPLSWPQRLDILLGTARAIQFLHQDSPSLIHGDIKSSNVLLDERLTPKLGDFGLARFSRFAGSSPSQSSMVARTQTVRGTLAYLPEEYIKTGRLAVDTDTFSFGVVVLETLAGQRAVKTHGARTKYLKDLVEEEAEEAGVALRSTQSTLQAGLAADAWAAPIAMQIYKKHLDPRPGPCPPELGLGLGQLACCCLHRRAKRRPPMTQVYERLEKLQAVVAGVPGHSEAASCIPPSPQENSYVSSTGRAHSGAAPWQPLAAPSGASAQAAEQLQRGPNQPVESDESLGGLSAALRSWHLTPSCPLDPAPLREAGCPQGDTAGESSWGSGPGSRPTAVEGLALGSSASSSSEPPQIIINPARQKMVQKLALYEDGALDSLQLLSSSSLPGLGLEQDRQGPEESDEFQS

[6] = target: Tyrosine-protein kinase JAK1 (Homo sapiens, UniProt P23458); assay: Inhibition of human JAK1 incubated for 20 mins prior to MgCl2 addition measured after 90 mins by mobility shift assay
Tyrosine-protein kinase JAK1, sequence (P23458 whole entry): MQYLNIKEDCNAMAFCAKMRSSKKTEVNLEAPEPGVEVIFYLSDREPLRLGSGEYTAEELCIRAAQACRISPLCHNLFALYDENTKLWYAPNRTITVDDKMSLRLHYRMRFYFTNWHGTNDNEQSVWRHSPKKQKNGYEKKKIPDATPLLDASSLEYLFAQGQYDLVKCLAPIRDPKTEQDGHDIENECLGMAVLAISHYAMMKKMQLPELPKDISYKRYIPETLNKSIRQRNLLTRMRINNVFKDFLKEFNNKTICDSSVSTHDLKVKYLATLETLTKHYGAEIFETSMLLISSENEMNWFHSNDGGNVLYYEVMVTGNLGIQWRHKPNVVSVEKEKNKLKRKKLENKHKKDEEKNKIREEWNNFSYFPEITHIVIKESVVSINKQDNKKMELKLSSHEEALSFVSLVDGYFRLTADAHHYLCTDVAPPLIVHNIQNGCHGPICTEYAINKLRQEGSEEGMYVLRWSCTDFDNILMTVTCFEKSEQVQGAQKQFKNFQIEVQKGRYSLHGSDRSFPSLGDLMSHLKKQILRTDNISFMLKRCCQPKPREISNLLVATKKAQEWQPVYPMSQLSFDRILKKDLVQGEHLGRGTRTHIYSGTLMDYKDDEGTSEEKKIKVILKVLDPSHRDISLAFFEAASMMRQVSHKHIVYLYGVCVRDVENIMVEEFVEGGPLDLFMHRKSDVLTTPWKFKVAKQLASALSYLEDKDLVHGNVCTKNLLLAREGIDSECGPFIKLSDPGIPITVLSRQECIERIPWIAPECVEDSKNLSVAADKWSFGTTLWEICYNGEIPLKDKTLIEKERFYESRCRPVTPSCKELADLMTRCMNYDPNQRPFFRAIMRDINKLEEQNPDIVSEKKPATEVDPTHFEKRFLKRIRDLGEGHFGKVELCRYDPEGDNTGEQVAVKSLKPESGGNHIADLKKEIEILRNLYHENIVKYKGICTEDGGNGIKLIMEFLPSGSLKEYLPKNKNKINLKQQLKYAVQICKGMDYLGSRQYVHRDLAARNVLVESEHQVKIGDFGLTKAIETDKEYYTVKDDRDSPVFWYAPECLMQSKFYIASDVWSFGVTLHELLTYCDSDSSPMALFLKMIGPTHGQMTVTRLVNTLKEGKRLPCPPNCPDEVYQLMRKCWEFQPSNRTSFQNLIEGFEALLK

[7] = target: Tyrosine-protein kinase JAK2 (Homo sapiens, UniProt O60674); assay: Inhibition of human JAK2 incubated for 20 mins prior to MgCl2 addition measured after 90 mins by mobility shift assay
Tyrosine-protein kinase JAK2, sequence (O60674 whole entry): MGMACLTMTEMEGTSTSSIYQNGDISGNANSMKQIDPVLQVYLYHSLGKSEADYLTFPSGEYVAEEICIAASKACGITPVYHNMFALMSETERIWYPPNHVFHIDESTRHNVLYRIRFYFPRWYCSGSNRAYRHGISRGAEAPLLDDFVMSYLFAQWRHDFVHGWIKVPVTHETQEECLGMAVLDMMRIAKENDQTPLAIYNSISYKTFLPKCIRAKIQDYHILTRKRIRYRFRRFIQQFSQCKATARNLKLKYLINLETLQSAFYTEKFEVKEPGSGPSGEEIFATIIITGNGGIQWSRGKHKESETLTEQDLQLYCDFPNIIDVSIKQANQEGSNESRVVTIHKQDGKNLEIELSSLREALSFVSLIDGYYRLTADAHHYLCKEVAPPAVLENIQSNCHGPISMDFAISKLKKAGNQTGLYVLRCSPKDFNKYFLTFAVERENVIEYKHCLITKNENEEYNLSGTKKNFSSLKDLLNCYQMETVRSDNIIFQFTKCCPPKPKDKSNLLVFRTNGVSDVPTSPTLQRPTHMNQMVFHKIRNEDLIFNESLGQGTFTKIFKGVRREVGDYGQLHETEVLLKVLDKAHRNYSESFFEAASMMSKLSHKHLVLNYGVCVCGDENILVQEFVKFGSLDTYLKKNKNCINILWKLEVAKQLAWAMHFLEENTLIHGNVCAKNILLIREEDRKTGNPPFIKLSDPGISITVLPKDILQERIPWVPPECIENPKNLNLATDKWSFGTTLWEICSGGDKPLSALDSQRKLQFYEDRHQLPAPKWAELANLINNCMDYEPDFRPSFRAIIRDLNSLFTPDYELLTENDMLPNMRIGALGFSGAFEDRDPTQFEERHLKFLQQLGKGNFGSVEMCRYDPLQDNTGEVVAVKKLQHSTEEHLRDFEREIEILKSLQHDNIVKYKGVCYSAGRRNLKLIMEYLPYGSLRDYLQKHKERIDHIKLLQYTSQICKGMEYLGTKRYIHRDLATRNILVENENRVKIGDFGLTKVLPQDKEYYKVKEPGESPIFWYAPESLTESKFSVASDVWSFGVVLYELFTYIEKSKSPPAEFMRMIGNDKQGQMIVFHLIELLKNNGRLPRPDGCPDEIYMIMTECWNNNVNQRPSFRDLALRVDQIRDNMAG

[8] = target: T2, Tyrosine-protein kinase JAK3 (Homo sapiens, UniProt P52333); assay: Inhibition of human JAK3 incubated for 20 mins prior to MgCl2 addition measured after 90 mins by mobility shift assay
T2 sequence (P52333 whole entry): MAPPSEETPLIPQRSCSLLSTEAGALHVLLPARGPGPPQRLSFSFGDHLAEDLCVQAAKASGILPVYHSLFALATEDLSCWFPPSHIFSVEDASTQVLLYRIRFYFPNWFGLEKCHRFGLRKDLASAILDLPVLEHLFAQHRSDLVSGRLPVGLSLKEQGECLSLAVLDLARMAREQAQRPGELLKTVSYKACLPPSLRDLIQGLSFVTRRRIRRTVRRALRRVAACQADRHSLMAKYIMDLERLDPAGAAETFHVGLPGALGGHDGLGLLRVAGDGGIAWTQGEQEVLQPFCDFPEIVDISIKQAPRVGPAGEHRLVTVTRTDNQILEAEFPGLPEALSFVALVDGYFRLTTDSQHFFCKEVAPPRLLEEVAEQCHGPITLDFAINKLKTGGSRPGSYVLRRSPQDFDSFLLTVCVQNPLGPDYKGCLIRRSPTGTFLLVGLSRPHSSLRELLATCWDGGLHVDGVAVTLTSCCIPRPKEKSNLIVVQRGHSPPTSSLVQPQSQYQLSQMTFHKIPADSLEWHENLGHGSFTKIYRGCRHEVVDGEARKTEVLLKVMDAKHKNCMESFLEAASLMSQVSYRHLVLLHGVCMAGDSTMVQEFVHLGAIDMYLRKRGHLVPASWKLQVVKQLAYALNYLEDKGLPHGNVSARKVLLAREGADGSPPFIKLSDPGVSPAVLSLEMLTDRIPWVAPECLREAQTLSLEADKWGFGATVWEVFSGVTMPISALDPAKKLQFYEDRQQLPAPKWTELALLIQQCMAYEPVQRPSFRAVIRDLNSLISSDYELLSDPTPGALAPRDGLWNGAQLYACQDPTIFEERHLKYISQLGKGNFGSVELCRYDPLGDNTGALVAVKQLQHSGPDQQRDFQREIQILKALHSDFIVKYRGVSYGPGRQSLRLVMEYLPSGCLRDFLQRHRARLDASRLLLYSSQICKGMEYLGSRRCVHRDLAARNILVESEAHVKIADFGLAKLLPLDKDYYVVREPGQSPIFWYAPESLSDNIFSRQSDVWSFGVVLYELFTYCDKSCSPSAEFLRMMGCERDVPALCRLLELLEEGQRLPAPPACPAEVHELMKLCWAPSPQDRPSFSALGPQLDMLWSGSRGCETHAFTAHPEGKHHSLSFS

[9] = target: Cyclin-dependent kinase 1 (Homo sapiens, UniProt P06493); assay: Inhibition of human CDK1 incubated for 20 mins prior to MgCl2 addition measured after 90 mins by mobility shift assay
Cyclin-dependent kinase 1, sequence (P06493 whole entry): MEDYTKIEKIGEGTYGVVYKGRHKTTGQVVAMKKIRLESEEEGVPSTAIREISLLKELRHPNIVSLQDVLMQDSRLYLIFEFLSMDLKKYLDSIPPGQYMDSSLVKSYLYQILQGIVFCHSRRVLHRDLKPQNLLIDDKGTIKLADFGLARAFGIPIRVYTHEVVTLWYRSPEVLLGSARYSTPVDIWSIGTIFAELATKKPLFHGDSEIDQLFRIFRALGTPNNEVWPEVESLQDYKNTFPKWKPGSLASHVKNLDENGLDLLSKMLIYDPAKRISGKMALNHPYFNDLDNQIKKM

[10] = target: Cyclin-dependent kinase 2 (Homo sapiens, UniProt P24941); assay: Inhibition of human CDK2 incubated for 20 mins prior to MgCl2 addition measured after 90 mins by mobility shift assay
[11] = target: Cyclin-dependent kinase 9 (Homo sapiens, UniProt P50750); assay: Inhibition of human CDK9 incubated for 20 mins prior to MgCl2 addition measured after 90 mins by mobility shift assay
Cyclin-dependent kinase 9, sequence (P50750 whole entry): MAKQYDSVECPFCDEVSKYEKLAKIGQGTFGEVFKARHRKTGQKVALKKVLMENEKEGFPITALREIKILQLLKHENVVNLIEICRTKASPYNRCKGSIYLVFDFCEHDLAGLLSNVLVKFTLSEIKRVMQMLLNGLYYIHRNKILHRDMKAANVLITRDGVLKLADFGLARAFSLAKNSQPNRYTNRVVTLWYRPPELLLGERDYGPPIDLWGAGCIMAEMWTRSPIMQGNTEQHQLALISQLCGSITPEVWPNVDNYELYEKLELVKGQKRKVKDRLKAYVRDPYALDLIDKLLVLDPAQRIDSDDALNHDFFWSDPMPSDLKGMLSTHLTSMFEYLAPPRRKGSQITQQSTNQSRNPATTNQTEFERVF

Streptococcus pneumoniae = assay: Antibacterial activity against Streptococcus pneumoniae after 18 to 24 hrs by agar dilution method; type: functional, organism-based
Streptococcus pyogenes = assay: Antibacterial activity against Streptococcus pyogenes after 18 to 24 hrs by agar dilution method; type: functional, organism-based
Haemophilus influenzae = assay: Antibacterial activity against Haemophilus influenzae after 18 to 24 hrs by agar dilution method; type: functional, organism-based
Moraxella catarrhalis = assay: Antibacterial activity against Moraxella catarrhalis after 18 to 24 hrs by agar dilution method; type: functional, organism-based

Row | IC50 [1] | IC50 [2] | fraction unbound at 0.5 h, 10 µM [3] | IC50 (Aurora kinase B) | IC50 [4] | IC50 [5] | IC50 [6] | IC50 [7] | IC50 [8] | IC50 [9] | IC50 [10] | IC50 [11] | SMILES | Activity (Streptococcus pneumoniae) | Activity (Streptococcus pyogenes) | Activity (Haemophilus influenzae) | Activity (Moraxella catarrhalis)
1 | 8.2 µM | 510 nM | 0.016 | 5.91 µM | > 30 µM | > 30 µM | > 30 µM | > 30 µM | > 30 µM | > 30 µM | > 30 µM | > 30 µM | COc1cc(C(=O)Nc2ccc(NC(=O)c3ccccn3)cc2)ccc1O |  |  |  | 
2 | 18 µM | 1400 nM | < 0.01 | > 30 µM | > 30 µM | > 30 µM | > 30 µM | > 30 µM | > 30 µM | > 30 µM | > 30 µM | > 30 µM | COc1cc(C(=O)Nc2ccc(NC(=O)c3ccccc3)cc2)ccc1O |  |  |  | 

More lines, now with the values behind:

Row | SMILES | IC50 [1] | IC50 [2] | fraction unbound at 0.5 h, 10 µM [3] | IC50 (Aurora kinase B) | IC50 [4] | IC50 [5] | IC50 [6] | IC50 [7] | IC50 [8] | IC50 [9] | IC50 [10] | IC50 [11] | Activity (Streptococcus pneumoniae) | Activity (Streptococcus pyogenes) | Activity (Haemophilus influenzae) | Activity (Moraxella catarrhalis)
3 | CCNC(=O)Nc1ccc(NC(=O)c2cc(OC)cc(-c3c[nH]c(=O)[nH]c3=O)c2)cc1 | 0.97 µM | 77 nM | 0.159 | 18.1 µM | > 30 µM | > 30 µM | > 30 µM | > 30 µM | > 30 µM | > 30 µM | > 30 µM | > 30 µM | inactive | inactive | inactive | inactive
4 | COc1cc(C(=O)Nc2ccc(NC(=O)C3CCCCN3)cc2)cc(-c2c[nH]c(=O)[nH]c2=O)c1 (stereo not drawn) | 0.12 µM | 50 nM | 0.395 | > 30 µM | > 30 µM | > 30 µM | > 30 µM | > 30 µM | > 30 µM | > 30 µM | > 30 µM | > 30 µM | inactive | inactive | inactive | inactive
5 | COc1cc(C(=O)Nc2ccc(NC(=O)c3ccccc3)cc2)c(N)cc1O | 5.9 µM | 6100 nM | 0.011 | > 30 µM | > 30 µM | > 30 µM | > 30 µM | > 30 µM | > 30 µM | > 30 µM | > 30 µM | > 30 µM |  |  |  | 
